Series [1] concerns Human immunodeficiency virus 1. Nature of the series: Antiviral activity against wild type HIV1 NL4-3 infected in MT4 cells after 6 days by MTT assay. Format: functional, organism-based. The following applies: Human immunodeficiency virus 1, NL4-3, MT4, 144 h. Background: Tetrazolium dyes change colour on reduction, which living cells bring about.
Series [2] in a line: Cytotoxicity against human MT4 cells after 6 days by MTT assay. The format is cell-based.
Series [3] has as its system Human immunodeficiency virus 1. As to the kind of experiment: Antiviral activity against wild type HIV1 NL4-3 in HEK293 cells after 48 hrs by replication-deffective luciferase reporter gene-based phenotypic assay. The format is functional, organism-based. The following applies: Human immunodeficiency virus 1, NL4-3, HEK293, 48 h.
A further series addresses Protease (Human immunodeficiency virus 1, UniProt Q9YQ12). Nature of the series: Inhibition of HIV1 protease.
The target in another series is Cathepsin D (Homo sapiens, UniProt P07339). Nature of the series: Inhibition of human cathepsin D.
Series [4] is described as follows: Inhibition of pig pepsin. Also noted: species or system Sus scrofa.

Protease, sequence (Q9YQ12 whole entry): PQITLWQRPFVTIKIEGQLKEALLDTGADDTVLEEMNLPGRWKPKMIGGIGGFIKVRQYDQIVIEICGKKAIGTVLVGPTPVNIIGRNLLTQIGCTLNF
Cathepsin D, sequence (P07339 65-162 limits assumed): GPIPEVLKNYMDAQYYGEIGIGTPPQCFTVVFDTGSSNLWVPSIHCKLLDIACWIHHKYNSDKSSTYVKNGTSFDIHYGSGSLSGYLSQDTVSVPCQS
Cathepsin D, sequence (P07339 169-412 limits assumed): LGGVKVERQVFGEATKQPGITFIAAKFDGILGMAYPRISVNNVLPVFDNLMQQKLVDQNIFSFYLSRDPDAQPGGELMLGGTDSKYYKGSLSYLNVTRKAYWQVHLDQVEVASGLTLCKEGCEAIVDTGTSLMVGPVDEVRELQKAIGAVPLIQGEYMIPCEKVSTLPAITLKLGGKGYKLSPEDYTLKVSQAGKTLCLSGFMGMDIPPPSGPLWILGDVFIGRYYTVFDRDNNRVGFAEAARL

In general, EC50 refers to the concentration that produces a half-maximal response. A higher EC50 goes with a less potent agent. In general, CC50 refers to the concentration that lowers cell viability or growth by half. With `CC(C)(C)NC(=O)[C@@H]1C[C@@H]2CCCC[C@@H]2CN1C[C@@H](O)[C@H](Cc1ccccc1)NC(=O)[C@H](CC(N)=O)NC(=O)c1ccc2ccccc2n1`, the EC50 in series [1] came out at 12 nM; in series [3] it was 1.8 nM. In series [2], this compound returned a CC50 at 144 h of 19000 nM.

Broadly, the Ki is the equilibrium dissociation constant of an inhibitor or competing ligand from its target. A lower Ki goes with higher affinity. What is called IC50 is the concentration at which inhibition is half-maximal. In turn, `CC(C)CN(C[C@@H](O)[C@H](Cc1ccccc1)NC(=O)O[C@H]1CCOC1)S(=O)(=O)c1ccc(N)cc1` displayed a Ki on Protease of 0.117 nM. Besides, the results for the EC50 in series [1] and in series [3] were 51 nM and 10.7 nM, respectively. The compound further had a half-maximal cytotoxic concentration (CC50) at 144 h in series [2] above 100000 nM. The IC50 turned out to be 15200 nM on Cathepsin D and 280 nM in series [4].

In the case of `CC(C)(C)NC(=O)[C@@H]1CN(Cc2cccnc2)CCN1C[C@@H](O)C[C@@H](Cc1ccccc1)C(=O)N[C@H]1c2ccccc2C[C@H]1O`, the figures for the concentration giving a half-maximal response (EC50) in series [1] and in series [3] were 67 nM and 7.8 nM, respectively. In series [2], this compound returned a CC50 at 144 h above 100000 nM.

On to `Cc1cccc(C)c1OCC(=O)N[C@@H](Cc1ccccc1)[C@@H](O)C[C@H](Cc1ccccc1)NC(=O)[C@H](C(C)C)N1CCCNC1=O` [LOPINAVIR], for which the EC50 was determined as 19 nM in series [1] and 2.8 nM in series [3]. The compound further had a half-maximal cytotoxic concentration (CC50) at 144 h in series [2] of 28000 nM.

On to `CC(C)c1nc(CN(C)C(=O)N[C@H](C(=O)N[C@@H](Cc2ccccc2)C[C@H](O)[C@H](Cc2ccccc2)NC(=O)OCc2cncs2)C(C)C)cs1` [RITONAVIR], for which the EC50 in series [1] turned out to be 61 nM.
